Patent publication US20240101576A1, “HETEROCYCLIC INHIBITORS OF EGFR AND/OR HER2, FOR USE IN THE TREATMENT OF CANCER” (Scorpion Therapeutics, Inc., priority 2020, published 2024)

Assays:
Format in all cases: cell-based
EGFR WT (Ba/F3 cells) = biological target: T1, EGFR WT (Ba/F3 cells) (Homo sapiens, UniProt P00533); test: Inhibitor activity on EGFR-dependent cell growth (CellTiter-Glo, 72 h), Ba/F3 EGFR WT; settings: read-out: BaF3 WT IC50
T1 construct: expressed in transfected cells; host or cells: Ba/F3 (murine pro-B cells), retroviral transduction, puromycin selection, maintained with EGF
T1 sequence (P00533 25-1210): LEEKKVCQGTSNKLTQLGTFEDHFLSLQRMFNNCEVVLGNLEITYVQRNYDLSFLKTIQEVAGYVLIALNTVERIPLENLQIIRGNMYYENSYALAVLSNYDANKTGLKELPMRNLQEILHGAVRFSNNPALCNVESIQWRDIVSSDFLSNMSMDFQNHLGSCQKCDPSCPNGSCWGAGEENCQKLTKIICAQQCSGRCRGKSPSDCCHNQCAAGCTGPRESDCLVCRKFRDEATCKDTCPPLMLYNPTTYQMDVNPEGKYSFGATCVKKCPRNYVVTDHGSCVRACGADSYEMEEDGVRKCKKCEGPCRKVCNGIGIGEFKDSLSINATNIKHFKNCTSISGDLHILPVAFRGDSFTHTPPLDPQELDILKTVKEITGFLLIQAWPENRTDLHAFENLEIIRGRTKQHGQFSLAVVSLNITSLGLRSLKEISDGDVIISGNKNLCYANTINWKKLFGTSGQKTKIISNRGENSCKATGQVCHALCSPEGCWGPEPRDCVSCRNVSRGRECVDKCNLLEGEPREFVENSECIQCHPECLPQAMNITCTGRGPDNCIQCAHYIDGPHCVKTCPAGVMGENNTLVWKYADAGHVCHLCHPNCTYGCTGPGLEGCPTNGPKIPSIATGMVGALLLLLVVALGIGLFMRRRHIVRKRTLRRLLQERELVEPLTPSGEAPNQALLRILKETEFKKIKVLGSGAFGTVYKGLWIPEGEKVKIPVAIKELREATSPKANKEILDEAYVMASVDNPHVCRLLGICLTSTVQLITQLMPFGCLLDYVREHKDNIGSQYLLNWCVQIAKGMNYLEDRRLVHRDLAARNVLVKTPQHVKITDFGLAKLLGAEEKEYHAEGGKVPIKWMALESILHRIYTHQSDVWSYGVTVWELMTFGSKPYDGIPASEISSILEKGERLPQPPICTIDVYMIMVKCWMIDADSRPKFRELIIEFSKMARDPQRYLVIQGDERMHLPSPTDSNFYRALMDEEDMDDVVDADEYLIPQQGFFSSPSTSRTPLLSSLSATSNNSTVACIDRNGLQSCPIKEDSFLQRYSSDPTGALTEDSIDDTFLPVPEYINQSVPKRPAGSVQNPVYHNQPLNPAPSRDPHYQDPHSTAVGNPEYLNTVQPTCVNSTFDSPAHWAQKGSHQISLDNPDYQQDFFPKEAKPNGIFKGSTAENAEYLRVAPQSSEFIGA
How it was run: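 This growth assay used Ba/F3 cells that depend on wild-type EGFR and are kept in EGF without IL3. Compounds were made up as 10 mM DMSO stocks and diluted 3-fold over 10 points. 120 nL went onto 600 cells/well. After 72 hours, 40 μL CellTiter-Glo was added and luminescence read on EnVision after 30 min.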

[1] = biological target: T2, EGFR exon 20 ASV Ins V769_D770 (Ba/F3 cells) (Homo sapiens, UniProt P00533, INS769ASV); test: Inhibitor activity on EGFR-dependent cell growth (CellTiter-Glo, 72 h), Ba/F3 EGFR exon 20 ASV Ins; settings: read-out: BaF3 ASV IC50
T2 construct: expressed in transfected cells; host or cells: Ba/F3 (murine pro-B cells), retroviral transduction, puromycin selection, IL3-independent pool
T2 sequence (P00533 with tags, fused parts or gaps INS769ASV): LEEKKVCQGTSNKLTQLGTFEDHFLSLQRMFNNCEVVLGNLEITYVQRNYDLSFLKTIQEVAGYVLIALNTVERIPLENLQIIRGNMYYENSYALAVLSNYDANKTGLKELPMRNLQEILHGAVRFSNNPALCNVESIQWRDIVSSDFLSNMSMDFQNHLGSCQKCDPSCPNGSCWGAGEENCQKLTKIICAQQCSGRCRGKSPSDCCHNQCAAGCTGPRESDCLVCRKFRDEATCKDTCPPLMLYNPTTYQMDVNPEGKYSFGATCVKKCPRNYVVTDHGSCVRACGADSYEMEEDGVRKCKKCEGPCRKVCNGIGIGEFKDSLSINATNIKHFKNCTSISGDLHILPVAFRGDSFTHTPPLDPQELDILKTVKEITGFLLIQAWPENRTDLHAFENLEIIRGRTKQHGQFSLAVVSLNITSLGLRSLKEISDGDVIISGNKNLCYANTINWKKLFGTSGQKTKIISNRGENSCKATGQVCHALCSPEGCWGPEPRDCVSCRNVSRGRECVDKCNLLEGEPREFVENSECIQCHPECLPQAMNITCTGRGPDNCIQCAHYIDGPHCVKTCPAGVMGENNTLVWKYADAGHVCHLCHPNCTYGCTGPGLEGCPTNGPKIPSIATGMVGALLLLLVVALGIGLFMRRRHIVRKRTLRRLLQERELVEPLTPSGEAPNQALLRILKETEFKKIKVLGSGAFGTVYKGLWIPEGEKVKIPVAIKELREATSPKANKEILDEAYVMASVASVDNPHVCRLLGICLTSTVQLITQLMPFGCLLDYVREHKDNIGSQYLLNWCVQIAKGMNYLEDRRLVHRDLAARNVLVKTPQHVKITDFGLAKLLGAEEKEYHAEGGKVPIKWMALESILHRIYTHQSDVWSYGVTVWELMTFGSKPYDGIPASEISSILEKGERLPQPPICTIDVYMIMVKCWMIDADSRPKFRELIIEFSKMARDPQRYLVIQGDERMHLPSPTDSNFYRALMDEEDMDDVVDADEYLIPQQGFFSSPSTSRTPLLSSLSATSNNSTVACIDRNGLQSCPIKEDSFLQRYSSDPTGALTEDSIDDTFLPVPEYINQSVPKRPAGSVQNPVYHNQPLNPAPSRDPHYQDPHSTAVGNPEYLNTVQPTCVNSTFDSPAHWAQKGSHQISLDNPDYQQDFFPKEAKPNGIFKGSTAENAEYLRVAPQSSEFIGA
How it was run: (§1)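 IC50s derive from a sigmoidal dose–response fit of CellTiter-Glo signal. The signal was normalised between […]-treated cells and cell-free medium. Ba/F3 mutant-EGFR cells, seeded at 400–800/well depending on the line, had 72 h of exposure to a 10-point, 3-fold compound series.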

[2] = biological target: T3, EGFR exon 20 SVD Ins D770_N771 (Ba/F3 cells) (Homo sapiens, UniProt P00533, INS770SVD); test: Inhibitor activity on EGFR-dependent cell growth (CellTiter-Glo, 72 h), Ba/F3 EGFR exon 20 SVD Ins; settings: read-out: BaF3 SVD IC50
T3 construct: expressed in transfected cells; host or cells: Ba/F3 (murine pro-B cells), retroviral transduction, puromycin selection, IL3-independent pool
T3 sequence (P00533 with tags, fused parts or gaps INS770SVD): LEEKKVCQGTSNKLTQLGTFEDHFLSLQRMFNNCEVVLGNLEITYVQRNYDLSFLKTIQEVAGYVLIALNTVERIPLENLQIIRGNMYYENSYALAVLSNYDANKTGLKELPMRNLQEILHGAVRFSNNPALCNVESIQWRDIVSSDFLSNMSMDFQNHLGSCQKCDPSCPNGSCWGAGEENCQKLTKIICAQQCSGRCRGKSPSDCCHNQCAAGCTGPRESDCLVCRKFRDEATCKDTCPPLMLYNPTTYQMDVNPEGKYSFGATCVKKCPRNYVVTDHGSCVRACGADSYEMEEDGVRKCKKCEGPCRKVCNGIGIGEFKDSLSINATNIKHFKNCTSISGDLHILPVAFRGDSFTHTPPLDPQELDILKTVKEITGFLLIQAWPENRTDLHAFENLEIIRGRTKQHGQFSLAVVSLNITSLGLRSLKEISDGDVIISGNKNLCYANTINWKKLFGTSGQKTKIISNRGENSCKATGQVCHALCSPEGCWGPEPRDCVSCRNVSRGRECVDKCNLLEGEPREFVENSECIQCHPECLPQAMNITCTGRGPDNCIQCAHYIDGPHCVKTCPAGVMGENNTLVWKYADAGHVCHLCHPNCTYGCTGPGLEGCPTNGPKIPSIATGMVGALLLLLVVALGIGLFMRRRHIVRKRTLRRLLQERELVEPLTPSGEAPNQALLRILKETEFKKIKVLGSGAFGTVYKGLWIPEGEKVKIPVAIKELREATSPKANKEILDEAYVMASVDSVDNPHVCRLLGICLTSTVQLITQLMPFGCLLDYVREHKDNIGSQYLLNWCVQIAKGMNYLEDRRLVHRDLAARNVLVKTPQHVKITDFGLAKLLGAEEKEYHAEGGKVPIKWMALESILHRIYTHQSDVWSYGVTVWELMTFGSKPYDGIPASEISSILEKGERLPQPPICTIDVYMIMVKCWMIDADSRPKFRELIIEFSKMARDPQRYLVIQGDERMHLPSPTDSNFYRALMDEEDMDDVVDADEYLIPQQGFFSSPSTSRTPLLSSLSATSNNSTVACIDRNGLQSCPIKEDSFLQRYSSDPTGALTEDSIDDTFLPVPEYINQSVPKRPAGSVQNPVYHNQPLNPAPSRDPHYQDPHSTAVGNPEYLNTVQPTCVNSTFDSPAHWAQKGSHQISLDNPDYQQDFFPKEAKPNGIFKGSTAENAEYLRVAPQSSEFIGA
How it was run: as §1

[3] = biological target: T4, EGFR exon 20 FQEA Ins A763_V764 (Ba/F3 cells) (Homo sapiens, UniProt P00533, INS763FQEA); test: Inhibitor activity on EGFR-dependent cell growth (CellTiter-Glo, 72 h), Ba/F3 EGFR exon 20 FQEA Ins; settings: read-out: BaF3 FQEA IC50
T4 construct: expressed in transfected cells; host or cells: Ba/F3 (murine pro-B cells), retroviral transduction, puromycin selection, IL3-independent pool
T4 sequence (P00533 with tags, fused parts or gaps INS763FQEA): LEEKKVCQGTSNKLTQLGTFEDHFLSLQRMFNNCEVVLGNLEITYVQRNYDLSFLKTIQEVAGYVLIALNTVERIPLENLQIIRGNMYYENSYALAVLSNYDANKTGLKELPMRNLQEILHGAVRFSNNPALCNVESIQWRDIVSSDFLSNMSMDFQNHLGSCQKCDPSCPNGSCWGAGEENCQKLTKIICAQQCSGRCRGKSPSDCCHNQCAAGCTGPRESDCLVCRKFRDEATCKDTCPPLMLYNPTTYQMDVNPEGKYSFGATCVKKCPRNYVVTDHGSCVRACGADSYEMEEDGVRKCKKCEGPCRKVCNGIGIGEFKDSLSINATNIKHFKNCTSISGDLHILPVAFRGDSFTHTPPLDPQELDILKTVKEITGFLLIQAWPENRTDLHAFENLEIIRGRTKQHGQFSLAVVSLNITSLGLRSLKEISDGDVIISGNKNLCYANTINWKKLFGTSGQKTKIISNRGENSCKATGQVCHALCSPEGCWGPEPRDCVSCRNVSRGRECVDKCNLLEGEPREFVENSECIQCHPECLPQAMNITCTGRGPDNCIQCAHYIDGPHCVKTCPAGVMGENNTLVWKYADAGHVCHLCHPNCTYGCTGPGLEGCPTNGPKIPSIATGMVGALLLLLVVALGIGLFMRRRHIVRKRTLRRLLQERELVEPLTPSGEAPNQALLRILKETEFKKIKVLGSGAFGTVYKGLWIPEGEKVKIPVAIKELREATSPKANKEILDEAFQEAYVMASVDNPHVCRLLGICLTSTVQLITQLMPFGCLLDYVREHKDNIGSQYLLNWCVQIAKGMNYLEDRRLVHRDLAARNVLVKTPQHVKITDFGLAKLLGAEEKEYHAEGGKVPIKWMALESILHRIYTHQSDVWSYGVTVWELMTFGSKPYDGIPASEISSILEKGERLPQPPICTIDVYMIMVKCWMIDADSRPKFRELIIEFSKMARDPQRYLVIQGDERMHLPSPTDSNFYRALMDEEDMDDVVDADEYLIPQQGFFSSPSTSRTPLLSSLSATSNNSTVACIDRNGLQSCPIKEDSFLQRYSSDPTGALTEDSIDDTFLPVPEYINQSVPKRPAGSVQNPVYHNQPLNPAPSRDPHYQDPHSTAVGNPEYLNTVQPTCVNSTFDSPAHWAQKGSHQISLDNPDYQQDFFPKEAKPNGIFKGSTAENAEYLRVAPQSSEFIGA
How it was run: as §1

IC50 (EGFR WT (Ba/F3 cells))	IC50 [1]	IC50 [2]	IC50 [3]	SMILES
> 1000 nM	> 1000 nM	> 1000 nM	> 1000 nM	COc1ccc2nccc(-c3[nH]c4c(c3Nc3cccc(Cl)c3OC)C(=O)NCC4)c2c1 [Compound 773, 3-[(3-chloro-2-methoxyphenyl)amino]-2-(6-methoxyquinolin-4-yl)-1H,5H,6H,7H-pyrrolo[3,2-c]pyridin-4-one]
> 1000 nM	100 to 1000 nM	100 to 1000 nM	100 to 1000 nM	COC(=O)N1CCC2(CC1)CNC(=O)c1c2[nH]c(-c2ccncc2F)c1Nc1cccc(Cl)c1OC [Compound 479, methyl 3′-[(3-chloro-2-methoxyphenyl)amino]-2′-(3-fluoropyridin-4-yl)-4′-oxo-5′,6′-dihydro-1′H-spiro[piperidine-4,7′-pyrrolo[3,2-c]pyridine]-1-carboxylate]
> 1000 nM	> 1000 nM	> 1000 nM	> 1000 nM	COCC[C@H]1CNC(=O)c2c(Nc3cccc(Cl)c3OC)c(-c3ccncn3)n(C)c21 (single isomer, unassigned) [Compound 797]
> 1000 nM	100 to 1000 nM	> 1000 nM	> 1000 nM	COc1ncc2nccc(-c3[nH]c4c(c3Nc3cccc(Cl)c3C(F)(F)F)C(=O)NCC4)c2n1 [Compound 801, 3-{[3-chloro-2-(trifluoromethyl)phenyl]amino}-2-{2-methoxypyrido[3,2-d]pyrimidin-8-yl}-1H,5H,6H,7H-pyrrolo[3,2-c]pyridin-4-one]
100 to 1000 nM	< 100 nM	< 100 nM	< 100 nM	COc1c(Cl)cccc1Nc1c(-c2ccnc3ccc(OCC4CC4)nc23)[nH]c2c1C(=O)NCC2 [compound 755, 3-[(3-chloro-2-methoxyphenyl)amino]-2-[6-(cyclopropylmethoxy)-1,5-naphthyridin-4-yl]-1H,5H,6H,7H-pyrrolo[3,2-c]pyridin-4-one]
100 to 1000 nM	< 100 nM	< 100 nM	100 to 1000 nM	COCC[C@@H]1CNC(=O)c2c1[nH]c(-c1ccncc1F)c2Nc1cccc(F)c1OC(F)F [Compound 470, (7R)-3-{[2-(difluoromethoxy)-3-fluorophenyl]amino}-2-(3-fluoropyridin-4-yl)-7-(2-methoxyethyl)-1H,5H,6H,7H-pyrrolo[3,2-c]pyridin-4-one]
< 100 nM	< 100 nM	< 100 nM	< 100 nM	COc1c(Cl)cccc1Nc1c(-c2ccnc3ccc(OC4CC4)nc23)[nH]c2c1C(=O)NCC2 [compound 677, 3-[(3-chloro-2-methoxyphenyl)amino]-2-(6-cyclopropoxy-1,5-naphthyridin-4-yl)-1H,5H,6H,7H-pyrrolo[3,2-c]pyridin-4-one]
100 to 1000 nM	< 100 nM	< 100 nM	< 100 nM	COc1ncc2nccc(-c3[nH]c4c(c3Nc3cccc(Cl)c3F)C(=O)NCC4)c2n1 [Compound 799, 3-[(3-chloro-2-fluorophenyl)amino]-2-[2-methoxypyrido[3,2-d]pyrimidin-8-yl]-1H,5H,6H,7H-pyrrolo[3,2-c]pyridin-4-one]
100 to 1000 nM	< 100 nM	< 100 nM	< 100 nM	COc1c(F)cccc1Nc1c(-c2ccnc3cnc(OC4COC4)nc23)[nH]c2c1C(=O)NCC2 [compound 440]
< 100 nM	< 100 nM	< 100 nM	< 100 nM	COc1cnc2c(-c3[nH]c4c(c3Nc3cccc(Cl)c3OC)C(=O)NCC4)ccnc2c1 [compound 814]
> 1000 nM	> 1000 nM	> 1000 nM	> 1000 nM	COc1c(Cl)cccc1Nc1c(-c2ccncc2F)[nH]c2c1C(=O)NC[C@]21CCN(C(C)=O)C1 [compound 491]
> 1000 nM	< 100 nM	< 100 nM	< 100 nM	COc1c(Cl)cccc1Nc1c(-c2ccncc2F)[nH]c2c1C(=O)NC[C@H]2CC(C)(C)O [compound 495, (7R)-3-[(3-chloro-2-methoxyphenyl)amino]-2-(3-fluoropyridin-4-yl)-7-(2-hydroxy-2-methylpropyl)-1H,5H,6H,7H-pyrrolo[3,2-c]pyridin-4-one]
100 to 1000 nM	< 100 nM	< 100 nM	< 100 nM	COc1c(Cl)cccc1Nc1c(-c2ccnc3cc(F)cnc23)[nH]c2c1C(=O)NCC2 [Compound 826]
> 1000 nM	100 to 1000 nM	100 to 1000 nM	100 to 1000 nM	COCC[C@H]1CNC(=O)c2c1[nH]c(-c1ccncc1F)c2Nc1cccc(F)c1OC(F)F [Compound 471, (7S)-3-{[2-(difluoromethoxy)-3-fluorophenyl]amino}-2-(3-fluoropyridin-4-yl)-7-(2-methoxyethyl)-1H,5H,6H,7H-pyrrolo[3,2-c]pyridin-4-one]
> 1000 nM	100 to 1000 nM	100 to 1000 nM	100 to 1000 nM	C=CC(=O)N1CC[C@@]2(CNC(=O)c3c2[nH]c(-c2ccncc2F)c3Nc2cccc(Cl)c2OC)C1 [compound 521]
> 1000 nM	> 1000 nM	> 1000 nM	> 1000 nM	COc1c(F)cccc1Nc1c(-c2ccnc(-c3cnn(C)c3)c2)[nH]c2c1C(=O)NCC2 [compound 259]
> 1000 nM	100 to 1000 nM	100 to 1000 nM	> 1000 nM	COc1c(Cl)cccc1Nc1c(-c2ccnc(C(F)F)n2)[nH]c2c1C(=O)NCC2 [compound 472, 3-[(3-chloro-2-methoxyphenyl)amino]-2-[2-(difluoromethyl)pyrimidin-4-yl]-1H,5H,6H,7H-pyrrolo[3,2-c]pyridin-4-one]
> 1000 nM	100 to 1000 nM	100 to 1000 nM	100 to 1000 nM	COc1c(Cl)cccc1Nc1c(-c2ccnc(N)n2)[nH]c2c1C(=O)NC(CO)C2 (centres unmarked) [Compound 751, 2-(2-aminopyrimidin-4-yl)-3-[(3-chloro-2-methoxyphenyl)amino]-6-(hydroxymethyl)-1H,5H,6H,7H-pyrrolo[3,2-c]pyridin-4-one]
> 1000 nM	100 to 1000 nM	< 100 nM	100 to 1000 nM	COCC[C@@H]1CNC(=O)c2c1[nH]c(-c1ccnc(C)n1)c2Nc1cccc(Cl)c1OC [463a]
100 to 1000 nM	< 100 nM	< 100 nM	< 100 nM	COc1ncc2nccc(-c3[nH]c4c(c3Nc3cccc(Cl)c3C)C(=O)NCC4)c2n1 [Compound 793, 3-[(3-chloro-2-methylphenyl)amino]-2-[2-methoxypyrido[3,2-d]pyrimidin-8-yl]-1H,5H,6H,7H-pyrrolo[3,2-c]pyridin-4-one]
> 1000 nM	> 1000 nM	> 1000 nM	> 1000 nM	COc1c(Cl)cccc1Nc1c(-c2ccncc2F)[nH]c2c1C(=O)NC[C@@H]2CCN(C)C [compound 475, (7S)-3-[(3-chloro-2-methoxyphenyl)amino]-7-[2-(dimethylamino)ethyl]-2-(3-fluoropyridin-4-yl)-1H,5H,6H,7H-pyrrolo[3,2-c]pyridin-4-one]
< 100 nM	< 100 nM	< 100 nM	< 100 nM	COc1c(Cl)cccc1Nc1c(-c2ccnc3ccc(C4CC4)nc23)[nH]c2c1C(=O)NCC2 [compound 752, 3-[(3-chloro-2-methoxyphenyl)amino]-2-(6-cyclopropyl-1,5-naphthyridin-4-yl)-1H,5H,6H,7H-pyrrolo[3,2-c]pyridin-4-one]
> 1000 nM	> 1000 nM	> 1000 nM	> 1000 nM	COc1c(Cl)cccc1Nc1c(-c2ccnc(C(F)(F)F)n2)[nH]c2c1C(=O)NCC2 [compound 476, 3-[(3-chloro-2-methoxyphenyl)amino]-2-[2-(trifluoromethyl)pyrimidin-4-yl]-1H,5H,6H,7H-pyrrolo[3,2-c]pyridin-4-one]
100 to 1000 nM	< 100 nM	< 100 nM	< 100 nM	COc1ncc2nccc(-c3[nH]c4c(c3Nc3cc(F)cc(Cl)c3OC)C(=O)NCC4)c2n1 [Compound 792, 3-[(3-chloro-5-fluoro-2-methoxyphenyl)amino]-2-[2-methoxypyrido[3,2-d]pyrimidin-8-yl]-1H,5H,6H,7H-pyrrolo[3,2-c]pyridin-4-one]
> 1000 nM	100 to 1000 nM	100 to 1000 nM	> 1000 nM	COc1c(Cl)cccc1Nc1c(-c2ccnc(NC[C@@H]3COCCO3)n2)[nH]c2c1C(=O)NCC2 [compound 724, 3-[(3-chloro-2-methoxyphenyl)amino]-2-[2-[(1,4-dioxan-2-ylmethyl)amino]pyrimidin-4-yl]-1H,5H,6H,7H-pyrrolo[3,2-c]pyridin-4-one]

SMILES	IC50 (EGFR WT (Ba/F3 cells))	IC50 [1]	IC50 [2]	IC50 [3]
COc1c(Cl)cccc1Nc1c(-c2ccnc3ccc(OC4CCC4)nc23)[nH]c2c1C(=O)NCC2 [compound 768, 3-[(3-chloro-2-methoxyphenyl)amino]-2-(6-cyclobutoxy-1,5-naphthyridin-4-yl)-1H,5H,6H,7H-pyrrolo[3,2-c] pyridin-4-one]	100 to 1000 nM	< 100 nM	< 100 nM	< 100 nM
